Reference: patent US9676789B2, “Aminated derivative of homoharringtonine, preparation method therefor, and application thereof” (HANGZHOU BENSHENG PHARMACEUTICAL CO., LTD., priority 2011, dated 2017)
In brackets after ≈: the same amount, converted by molar mass.

Tests used:
MG63 (osteosarcoma) = test: MTT solid tumor cell growth inhibition, 72 h; format: cell-based, human; settings: Homo sapiens, MG 63, 72 h
In short: (§1)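 MTT read-out after 72 h compound treatment at 37° C, 5% CO2, of 4000 cells/well that had first been cultured 24 h in DMEM high glucose plus 10% FBS. Cell viability (%) refers to untreated control as 100%.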

[1] = system: U87 MG (malignant glioma cell); test: MTT solid tumor cell growth inhibition, 72 h; format: cell-based, human; settings: Homo sapiens, U-87 MG
In short: as §1

PC-3 (prostate cancer) = test: MTT solid tumor cell growth inhibition, 72 h; format: cell-based, human; settings: Homo sapiens, PC-3, 72 h
In short: as §1

[2] = system: SK-OV-3 (ovarian cancer cell); test: MTT solid tumor cell growth inhibition, 72 h; format: cell-based, human; settings: Homo sapiens, SK-OV-3, 72 h
In short: as §1

[3] = system: CNE (nasopharyngeal carcinoma cell); test: MTT solid tumor cell growth inhibition, 72 h; format: cell-based, human; settings: Homo sapiens
In short: as §1

[4] = system: PANC-1 (pancreatic cancer); test: MTT solid tumor cell growth inhibition, 72 h; format: cell-based, human; settings: Homo sapiens, PANC-1, 72 h
In short: as §1

[5] = system: CaES-17 (esophageal cancer cell); test: MTT solid tumor cell growth inhibition, 72 h; format: cell-based, human; settings: Homo sapiens, CaEs17, CaES-17, 72 h
In short: as §1

[6] = system: K562/adr, NB4, Kasumi-1 and H9; test: Anti-leukemia activity, summary over cell lines; format: cell-based, human; settings: result in words, summary of Table 1
Text: Leukemia cell lines: K562/adr (drug-resistant, chronic myeloid leukemia, CML), NB4 (acute promyelocytic leukemia, AML), Kasumi-1 (acute myeloid leukemia M2 type, AML-M2), Jurkat (acute lymphoblastic leukemia, ALL), all of which are donated by Cancer Research Institute of Zhejiang University, China; and H9 (acute lymphoblastic leukemia, ALL), which is purchased from China Center for Type Culture Collection.
Obtaining 6000 well-growing leukemia cells and inoculating them into wells of a 96-well cell culture plate. The culture medium is the 1640 cell culture medium containing 10% fetal bovine serum. After adding the homoharringtonine derivatives of different concentrations and mixing uniformly, placing the plate in a carbon dioxide cell incubator (5% CO2) at 37° C. and incubating for 72 hours. Then the viable cell concentration is determined by the MTT method. In this experiment, the cell viability in control group (not treated with any compound) is set as 100%.

[7] = system: RPMI8226 (multiple myeloma); test: MTT multiple myeloma cell growth inhibition, 72 h; format: cell-based, human
In short: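 RPMI8226 cells at 6000 per well in 1640 medium with 10% fetal bovine serum, exposed to homoharringtonine derivatives at various concentrations. Incubation 72 h at 37° C, 5% CO2; viable cells read by MTT.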

[8] = system: A549, PANC-1, Becap37, MG63, Huh7, RKO, Hela, CaES-17, CNE, Hep-2, PC-3 and SK-OV-3; test: Anti-human solid tumor effect, summary over cell lines; format: cell-based; settings: result in words, summary of Table 2
Method: Human solid tumor cell lines: Hep-2 ([…]), A549 (human lung cancer), CaES-17 (esophageal cancer cell), PC-3 (prostate cancer), CNE (nasopharyngeal carcinoma cell), and SK-OV-3 (ovarian cancer cell), all of which are purchased from China Center For Type Culture Collection; RKO (human colon adenocarcinoma cell), MGC 803 (human gastric cancer cell), MG63 (osteosarcoma) and U87 MG (malignant glioma cell), all of which are purchased from Fuxiang Bio-tech Co. Ltd., Shanghai, China; PANC-1 (pancreatic cancer), Huh7 (human liver cancer cell), Becap37 (human breast cancer cell), and Hela (human cervical cancer cell), all of which are donated by Cancer Research Institute of Zhejiang University, China.
Obtaining 4000 well-growing human solid tumor cells and inoculating them into wells of a 96-well cell culture plate. The culture medium is DMEM High Glucose cell culture medium containing 10% fetal bovine serum. The plate is placed in a carbon dioxide cell incubator (5% CO2) at 37° C. and incubating for 24 hours. After adding the homoharringtonine derivatives of different concentration and mixing uniformly, the plate is placed in a carbon dioxide cell incubator (5% CO2) at 37° C. and incubating for 72 hours. Then the viable cell concentration is determined by the MTT method and the cell viability (%) after drug treatment is calculated. In this experiment, the cell viability of control group (not treated with any compound) is set as 100%.

[9] = system: H9 (acute lymphoblastic leukemia, ALL); test: MTT leukemia cell growth inhibition, 72 h; format: cell-based, human; settings: Homo sapiens, H9, 72 h
In short: (§2)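 After 72 h of compound exposure (37°C, 5% CO2), viability was read by MTT and expressed relative to untreated cells at 100%. Each well held 6000 leukemia cells in 1640 medium containing 10% fetal bovine serum, with homoharringtonine derivatives added at a range of concentrations.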

[10] = system: Kasumi-1 (acute myeloid leukemia M2 type, AML-M2); test: MTT leukemia cell growth inhibition, 72 h; format: cell-based, human; settings: Homo sapiens, Kasumi-1, 72 h
In short: as §2

[11] = system: Jurkat (acute lymphoblastic leukemia, ALL); test: MTT leukemia cell growth inhibition, 72 h; format: cell-based, human; settings: Homo sapiens
In short: as §2

[12] = system: NB4 (acute promyelocytic leukemia, AML); test: MTT leukemia cell growth inhibition, 72 h; format: cell-based, human; settings: Homo sapiens, NB4, 72 h
In short: as §2

[13] = system: K562/adr (drug-resistant, chronic myeloid leukemia, CML); test: MTT leukemia cell growth inhibition, 72 h; format: cell-based, human; settings: Homo sapiens, K562/Adr
In short: as §2

[14] = system: Huh7 (human liver cancer cell); test: MTT solid tumor cell growth inhibition, 72 h; format: cell-based; settings: Homo sapiens, Huh-7, Huh7, 72 h
In short: as §1

[15] = system: Hep-2 (human hepatocellular carcinoma); test: MTT solid tumor cell growth inhibition, 72 h; format: cell-based; settings: Homo sapiens, HEp-2, Hep2, 72 h
In short: as §1

[16] = system: RKO (human colon adenocarcinoma cell); test: MTT solid tumor cell growth inhibition, 72 h; format: cell-based; settings: Homo sapiens
In short: as §1

[17] = system: Becap37 (human breast cancer cell); test: MTT solid tumor cell growth inhibition, 72 h; format: cell-based; settings: Homo sapiens, Becap37, 72 h
In short: as §1

[18] = system: MGC 803 (human gastric cancer cell); test: MTT solid tumor cell growth inhibition, 72 h; format: cell-based; settings: Homo sapiens, MGC 803, 72 h
In short: as §1

A549 (human lung cancer) = test: MTT solid tumor cell growth inhibition, 72 h; format: cell-based; settings: Homo sapiens, A549, 72 h
In short: as §1

[19] = system: Hela (human cervical cancer cell); test: MTT solid tumor cell growth inhibition, 72 h; format: cell-based; settings: Homo sapiens, HeLa
In short: as §1

COC1=C[C@]23CCCN2CCc2cc4c(cc2[C@@H]3[C@@H]1OC(=O)[C@@](O)(CCCC(C)(C)O)CC(=O)NC1CCCCC1)OCO4 [BS-HH-042, O-3-[(2R)-2,6-dihydroxy-2-(2′-cyclohexaneamino-2′-oxoethyl)-6-methylheptanoyl]cephalotaxine]
IC50 (MG63 (osteosarcoma); read-out: IC50): 0.12 µg/mL (≈ 0.196 µM) | IC90 (MG63 (osteosarcoma); read-out: IC90): 16 µg/mL (≈ 26.1 µM) | IC50 ([1]; read-out: IC50): 0.12 µg/mL (≈ 0.196 µM) | IC90 ([1]; read-out: IC90): 13 µg/mL (≈ 21.3 µM) | IC50 (PC-3 (prostate cancer); read-out: IC50): 0.31 µg/mL (≈ 0.506 µM) | IC90 (PC-3 (prostate cancer); read-out: IC90): > 16 µg/mL | IC50 ([2]; read-out: IC50): 0.21 µg/mL (≈ 0.343 µM) | IC90 ([2]; read-out: IC90): > 16 µg/mL | IC50 ([3]; read-out: IC50): 0.13 µg/mL (≈ 0.212 µM) | IC90 ([3]; read-out: IC90): > 16 µg/mL | IC50 ([4]; read-out: IC50): 0.13 µg/mL (≈ 0.212 µM) | IC90 ([4]; read-out: IC90): > 16 µg/mL | IC50 ([5]; read-out: IC50): 0.29 µg/mL (≈ 0.473 µM) | IC90 ([5]; read-out: IC90): 16 µg/mL (≈ 26.1 µM) | anti-K562/adr, anti-NB4, anti-Kasumi-1 and anti-H9 activity [6]: strong | IC50 ([7]; Homo sapiens, RPMI-8226, RPMI8226, 72 h, read-out: IC50): 0.042 µg/mL (≈ 0.0685 µM) | IC90 ([7]; Homo sapiens, RPMI-8226, RPMI8226, 72 h, read-out: IC90): 0.24 µg/mL (≈ 0.392 µM) | anti-RPMI8226 (multiple myeloma) effect ([7]; result in words, summary of Table 2): strong | anti-A549, anti-PANC-1, anti-Becap37, anti-MG63, anti-Huh7, anti-RKO, anti-Hela, anti-CaES-17, anti-CNE, anti-Hep-2, anti-PC-3 and anti-SK-OV-3 effect [8]: strong | IC50 ([9]; read-out: IC50): 0.04 µg/mL (≈ 0.0653 µM) | IC90 ([9]; read-out: IC90): 0.1 µg/mL (≈ 0.163 µM) | IC50 ([10]; read-out: IC50): 0.048 µg/mL (≈ 0.0783 µM) | IC90 ([10]; read-out: IC90): 0.21 µg/mL (≈ 0.343 µM) | IC50 ([11]; read-out: IC50): 0.037 µg/mL (≈ 0.0604 µM) | IC90 ([11]; read-out: IC90): 16 µg/mL (≈ 26.1 µM) | IC50 ([12]; read-out: IC50): 0.06 µg/mL (≈ 0.0979 µM) | IC90 ([12]; read-out: IC90): 0.13 µg/mL (≈ 0.212 µM) | IC50 ([13]; read-out: IC50): 3.2 µg/mL (≈ 5.22 µM) | IC90 ([13]; read-out: IC90): 16 µg/mL (≈ 26.1 µM) | IC50 ([14]; read-out: IC50): 0.044 µg/mL (≈ 0.0718 µM) | IC90 ([14]; read-out: IC90): > 16 µg/mL | IC50 ([15]; read-out: IC50): 0.97 µg/mL (≈ 1.58 µM) | IC90 ([15]; read-out: IC90): > 16 µg/mL | IC50 ([16]; read-out: IC50): 0.029 µg/mL (≈ 0.0473 µM) | IC90 ([16]; read-out: IC90): 0.23 µg/mL (≈ 0.375 µM) | IC50 ([17]; read-out: IC50): 0.17 µg/mL (≈ 0.277 µM) | IC90 ([17]; read-out: IC90): > 16 µg/mL | IC50 ([18]; read-out: IC50): 0.096 µg/mL (≈ 0.157 µM) | IC90 ([18]; read-out: IC90): 0.25 µg/mL (≈ 0.408 µM) | IC50 (A549 (human lung cancer); read-out: IC50): 0.45 µg/mL (≈ 0.734 µM) | IC90 (A549 (human lung cancer); read-out: IC90): > 16 µg/mL | IC50 ([19]; read-out: IC50): 0.45 µg/mL (≈ 0.734 µM) | IC90 ([19]; read-out: IC90): > 16 µg/mL
